Measured values reported in patent publication US9210928B2, “Plant development control composition” (Syngenta Crop Protection, LLC, priority 2008, dated 2015).
Entries after “also recorded” stand apart in the source; their conditions may differ.

Biological target: T1, MmBCO2 (Mus musculus, UniProt Q99NF1)
T1 construct: All genes were full length except AtCCD7; expressed in transfected cells; host or cells: E. coli BL21(DE3) harbouring pAC-BETA
T1 sequence (Q99NF1 1-532): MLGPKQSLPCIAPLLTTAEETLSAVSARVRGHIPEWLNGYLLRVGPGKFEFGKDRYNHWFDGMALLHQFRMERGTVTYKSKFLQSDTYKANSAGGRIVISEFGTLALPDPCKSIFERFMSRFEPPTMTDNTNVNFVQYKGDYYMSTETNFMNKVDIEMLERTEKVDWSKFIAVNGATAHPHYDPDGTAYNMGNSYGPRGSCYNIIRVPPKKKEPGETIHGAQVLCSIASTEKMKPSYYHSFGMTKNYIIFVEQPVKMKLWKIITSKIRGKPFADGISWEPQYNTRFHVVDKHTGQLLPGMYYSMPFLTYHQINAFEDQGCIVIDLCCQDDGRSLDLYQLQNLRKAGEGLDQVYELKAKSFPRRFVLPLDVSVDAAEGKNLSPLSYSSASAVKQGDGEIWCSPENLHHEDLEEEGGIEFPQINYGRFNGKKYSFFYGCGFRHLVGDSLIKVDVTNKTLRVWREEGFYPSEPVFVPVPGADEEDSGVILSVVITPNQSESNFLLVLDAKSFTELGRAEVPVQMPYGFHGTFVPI
Experiment: In vivo enzyme assay in β-carotene-producing E. coli expressing MmBCO2
Assay type: cell-based
Conditions: 100 μM inhibitor, 16 hours; FIG. 4
From the text: In vivo enzyme assays in E. coli—The genes of interest (supplemental Table S1) were cloned into the vector pET30c (Novagen) fused directly to the initial ATG codon with no tag, or into pGEX-4T such that the gene was fused to an N-terminal GST tag. All genes were full length except AtCCD7, which had the chloroplast signal sequence removed (supplemental methods). […] Therefore, this construct was used in subsequent assays. The plasmids were transferred to the E. coli expression strain BL21(DE3), harbouring pAC-BETA (38), and therefore producing β-carotene.
For each inhibitor assay, 2.5 ml LB media with the appropriate antibiotics (25 μg ml^−1 chloramphenicol and 50 μg ml^−1 kanamycin or 100 μg ml^−1 ampicillin) and 2.5 μM IPTG, was prepared. […] The supernatant was removed and the O.D.453-O.D.550 was measured. The amount of β-carotene was calculated using a standard curve generated from a dilution series of β-carotene (Sigma) in ethanol with 0.2% Triton X-100; the absolute levels of β-carotene are shown in FIG. 8. The relative inhibition was calculated by the equation: (Ci−Cc)/(C1−Cc)×100, where Ci is the carotenoid level with inhibitor and CCD present, Cc is the level with CCD but without the inhibitor and C1 is the level in a strain where lacZ is expressed instead of the CCD, and no inhibitor is present. […]

Row | Compound | relative inhibition of MmBCO2 in E. coli (in words)
1 | COc1ccc(C(=O)N(O)Cc2ccccc2)cc1 [Compound F1, N-benzyl-4-methoxybenzoyl hydroxamic acid] | most effective compounds at inhibiting MmBCO2; also recorded: high inhibitory activity
2 | COc1ccc(C(=O)N(O)Cc2ccc(F)cc2)cc1 [Compound F2, N-(4-fluorobenzyl)-4-methoxybenzoyl hydroxamic acid] | most effective compounds at inhibiting MmBCO2; also recorded: high inhibitory activity
